Assay [1] has as its target T1, zebrafish Tgds (Danio rerio, UniProt A0AC58JQE1).
T1 construct: full coding region (347 residues) from ovary cDNA, pET-28a NdeI/XhoI, N-terminal 6xHis tag (cutting not mentioned), E. coli BL21 DE
T1 sequence (A0AC58JQE1 1-347): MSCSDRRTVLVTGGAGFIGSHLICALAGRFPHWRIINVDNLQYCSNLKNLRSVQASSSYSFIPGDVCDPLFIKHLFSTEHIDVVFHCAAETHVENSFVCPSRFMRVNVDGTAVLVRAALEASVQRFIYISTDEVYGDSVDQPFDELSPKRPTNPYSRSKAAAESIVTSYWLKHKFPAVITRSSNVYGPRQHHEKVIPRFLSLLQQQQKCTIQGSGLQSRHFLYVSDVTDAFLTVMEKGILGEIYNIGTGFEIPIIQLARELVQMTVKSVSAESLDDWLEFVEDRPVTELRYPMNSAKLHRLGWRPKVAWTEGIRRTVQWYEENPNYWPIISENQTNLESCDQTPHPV
The assay is described as follows: cycling assay of NAD+ tightly bound to the purified protein. The format is binding. The conditions noted are these: co-purified, tightly bound cofactor; protein from calculated extinction coefficient at 280 nm. The source says: (§1) cycling assay of NAD+ tightly bound to the purified protein on zebrafish Tgds

Assay [2] deals with T2, zebrafish Tgds (Danio rerio, UniProt A0AC58JQE1, A89S).
T2 construct: full coding region (347 residues) from ovary cDNA, pET-28a NdeI/XhoI, N-terminal 6xHis tag (cutting not mentioned), E. coli BL21 DE
T2 sequence (A0AC58JQE1 1-347 A89S): T1 sequence (A0AC58JQE1 1-347) with A89S
Described as above. The format is binding. The conditions noted are these: co-purified, tightly bound cofactor; protein from calculated extinction coefficient at 280 nm.
From the text: as §1

Assay [3] addresses T3, zebrafish Tgds (Danio rerio, UniProt A0AC58JQE1, E79G).
T3 construct: full coding region (347 residues) from ovary cDNA, pET-28a NdeI/XhoI, N-terminal 6xHis tag (cutting not mentioned), E. coli BL21 DE
T3 sequence (A0AC58JQE1 1-347 E79G): T1 sequence (A0AC58JQE1 1-347) with E79G
The description is as above. Conditions: co-purified, tightly bound cofactor; protein from calculated extinction coefficient at 280 nm. The format is binding.
From the text: as §1

The target of assay [4] is T4, zebrafish Tgds (Danio rerio, UniProt A0AC58JQE1, Y223H).
T4 construct: full coding region (347 residues) from ovary cDNA, pET-28a NdeI/XhoI, N-terminal 6xHis tag (cutting not mentioned), E. coli BL21 DE
T4 sequence (A0AC58JQE1 1-347 Y223H): T1 sequence (A0AC58JQE1 1-347) with Y223H
Described as above. The conditions noted are these: co-purified, tightly bound cofactor; protein from calculated extinction coefficient at 280 nm. It counts as binding.
From the text: as §1

The target in assay [5] is T1, zebrafish Tgds. Briefly: anion exchange HPLC. The format is biochemical. Conditions: PBS pH 7.3, 30 °C.

Numbering of substitutions follows the chain as printed.

`NC(=O)c1ccc[n+]([C@@H]2O[C@H](COP(=O)(O)OP(=O)(O)OC[C@H]3O[C@@H](n4cnc5c(N)ncnc54)[C@H](O)[C@@H]3O)[C@@H](O)[C@H]2O)c1` [NAD^+]: the “NAD^+/protein molar ratio ^d” value in assay [1] is listed as 0.55 mol/mol; in assay [2] it was 0.39 mol/mol; in assay [3], 0.16 mol/mol; in assay [4] it was 0.04 mol/mol.

Regarding `Cc1cn([C@H]2C[C@H](O)[C@@H](COP(=O)(O)OP(=O)(O)O[C@H]3O[C@H](CO)[C@@H](O)[C@H](O)[C@H]3O)O2)c(=O)[nH]c1=O` [TDP‐D‐glucose], in assay [5], the “anion exchange HPLC” value is “The enzyme exhibited lower activity with TDP‐D‐glucose”.

The values above are taken from publication PMC13080230, “Zebrafish as a model for Catel–Manzke syndrome—identification and characterization of the zebrafish TGDS ortholog” (The Febs Journal, 2025).
